Format in all cases: cell-based, Human
In assay [1] the test system is MDA-MB-231 cells. Nature of the assay: Proliferation assay. The conditions noted are these: 2 h treatment in DMEM pH 6.0 or 7.4, MTS at 48 h.
Assay [2] relates to U2OS cells. In words: Proliferation assay. The conditions noted are these: 2 h treatment in DMEM pH 6.0 or 7.4, MTS at 48 h.
For assay [3], the system named is M4A4 cells. In words: Proliferation assay. The conditions noted are these: 2 h treatment in DMEM pH 6.0 or 7.4, MTS at 48 h.
For assay [4], the system named is HeLa cells.

With `CC[C@H](C)[C@@H]1NC(=O)CNC(=O)[C@@H]2Cc3c([nH]c4cc(O)ccc34)[S@+]([O-])C[C@H](NC(=O)CNC1=O)C(=O)N[C@@H](CC(N)=O)C(=O)N1C[C@H](O)C[C@H]1C(=O)N[C@@H]([C@@H](C)[C@@H](O)CO)C(=O)N2` [amanitin, α-Amanitin], the “inhibition of cell proliferation / toxicity” value in assay [1] is “no toxicity was observed”; in assay [1] (listed as Amanitin), “no effect on proliferation”; in assay [2] it was “no toxicity was observed”; in assay [2] (listed as Amanitin), “no effect on proliferation”; in assay [3], “no toxicity was observed”; in assay [3] (listed as Amanitin) it was “no effect on proliferation”.

As to `CN[C@@H]1C[C@H]2O[C@@](C)([C@@H]1OC)n1c3ccccc3c3c4c(c5c6ccccc6n2c5c31)C(=O)NC4` [staurosporine], the “plasma membrane staining with AnnexinV-FITC” value in assay [4] is “stained with AnnexinV-FITC”.

Values taken from paper PMC3580847 (Biochemistry, 2013).
